Results on one molecule are retold here after patent US8569362B2, “Polyketide molecules as anticancer agents” (Pierre Fabre Medicament, priority 2009, dated 2013).

Holding throughout (format): cell-based
Test [1] deals with A549 (non small cell lung cancer). The test can be described thus: Growth inhibition of human cancer cell lines, ATP-lite luminescence, A549. The settings on record: A549, 48 h incubation, cell survival by ATP luminescence. How it is done: (§1) The cancerous cells [lines A549 (non small cell lung cancer), BxPC3 (cancer of the pancreas), LoVo (colon cancer), MCF7 (breast cancer), Namalwa (Burkitt's lymphoma) and SK-OV-3 (ovarian cancer)] were cultured in a 96-well plate in RPMI 1640 medium without phenol red (Seromed) to which was added 10% of foetal veal serum (100 μl/well, 1 to 3.10^4 cells/ml depending on the considered line). After an incubation of 24 h at 37° C. in an incubator with 5% CO2, the medium was replaced by that containing the compound to be tested (molecule I-1), after which the plates were incubated for an additional 48 h. Cell survival was evaluated by measurement of the luminescence after release of ATP in the medium using the cell lysis solutions, luciferase and luciferine contained in the ATP-lite-MTM kit, as recommended by the manufacturer (Packard, Rungis, France). Each experimental condition was tested at least three times in sextuplets. The table below presents the IC50 data (expressed in M) of the molecule I-1, as a function of the different cell lines tested.

Test [2] deals with BxPC3 (cancer of the pancreas). The experiment in a line: Growth inhibition of human cancer cell lines, ATP-lite luminescence, BxPC3. As to conditions: BXPC-3, BxPC3, 48 h incubation, cell survival by ATP luminescence. Here is the method: as §1
A further test has as its system LoVo (colon cancer). The test can be described thus: Growth inhibition of human cancer cell lines, ATP-lite luminescence, LoVo. The settings on record: 48 h incubation, cell survival by ATP luminescence. Here is the method:
as §1

For a further test, the system named is MCF7 (breast cancer). The experiment in a line: Growth inhibition of human cancer cell lines, ATP-lite luminescence, MCF7. The settings on record: MCF7, 48 h incubation, cell survival by ATP luminescence. How it is done: as §1
Test [3] deals with Namalwa (Burkitt's lymphoma). The experiment in a line: Growth inhibition of human cancer cell lines, ATP-lite luminescence, Namalwa. As to conditions: 48 h incubation, cell survival by ATP luminescence. How it is done: as §1
The next test has as its system SK-OV-3 (ovarian cancer). The test can be described thus: Growth inhibition of human cancer cell lines, ATP-lite luminescence, SK-OV-3. The settings on record: SK-OV-3, 48 h incubation, cell survival by ATP luminescence. Here is the method:
as §1

Test [4] has as its system HeLa tumoral cells (human carcinoma). The experiment in a line: Cellular phenotype (immunofluorescence and microscopy; α-tubulin, γ-tubulin, DAPI). As to conditions: 24 h treatment. How it is done:
The HeLa tumoral cells (human carcinoma) were cultured for 24 h on 12 mm diameter glass slides, placed in 24-well culture plates (7.10^3 cells per well).
The cells were then treated for a new period of 24 h by the molecule I-1 at the tested concentrations. […] The DNA was labelled with DAPI (0.2 μg/ml—15 minutes—37° C.). After the different labellings, the slides were dried and mounted in a Vectashield mounting liquid (AbCys, France), before being observed through an epi-fluorescence microscope (Axiovert 200M; objective×63 Plan Apochromat NA, 1.4; ZEISS, France).

Take `COC(CCC(C)C1(O)CC(C(C)/C=C(C)/C=C(\C)C(O)C(C)C(O)C(C)C(OC)C(C)/C=C/C=C/C=C/C(=O)O)OC(=O)C1O)CC(CC(O)C(C)C/C=C/C(C)C1CC(C(C)CCC(C)O)C(O)C(=O)O1)OC` (stereo not shown) [molecule I-1]: the IC50 came out at 0.82 nM in test [1]; 0.47 nM in test [2]; 0.081 nM in the test on LoVo (colon cancer); 0.011 nM in the test on MCF7 (breast cancer); 1.1 nM in test [3]; 0.33 nM in the test on SK-OV-3 (ovarian cancer). In test [4] (between 5.10^−9M and 5.10^−8M), the “Centrosomes of interphasic cells (γ-tubulin labelling)” value is “often separated and normally labelled by γ-tubulin”. For the same molecule, in test [4] (between 5.10^−9M and 5.10^−8M), the “Microtubular cytoskeleton of interphasic cells (labelling by α-tubulin)” value is reported as “devoid of microtubular cytoskeleton”. Moreover, the “Centrosomes of mitotic cells (γ-tubulin labelling)” value in test [4] (between 10^−9M and 5.10^−8M) was “normally present and labelled by γ-tubulin”. In addition, in test [4] (dose effect between 10^−9M and 5.10^−8M), the “Mitotic cells: mitotic block and microtubules (α-tubulin labelling)” value is reported as “blocked in prometaphase without microtubules”.
